Data reported in ChEMBL document CHEMBL5532761, “Rosavin improves insulin resistance and alleviates hepatic and kidney damage via modulating the cGAS-STING pathway and autophagy signaling in HFD/STZ-induced T2DM animals” (2024).
Activity calls are given as the source filed them. The calls are words filed in the database; no cut-off is given here.

Key:
Rattus norvegicus [1] = test: (§1) Antidiabetic activity in high fat diet-STZ induced diabetic Wistar rat model assessed as organized histological features of hepatic parenchyma at 30 mg/kg, ip pretreated with high fat diet for 4 weeks followed by 8 hrs fasting after STZ administration and measured 4 weeks after compound treatment by hematoxylin and eosin staining based microscopic analysis; assay type: functional, organism-based
Rattus norvegicus [2] = test: (§2) Antidiabetic activity in high fat diet-STZ induced diabetic Wistar rat model assessed as mean area percentage of LC3B in kidney at 20 mg/kg, ip pretreated with high fat diet for 4 weeks followed by 8 hrs fasting after STZ administration and measured after 4 weeks of compound treatment by immunohistochemistry based microscopic analysis (reference value: 2.47 +/- 0.356 %); assay type: functional
Rattus norvegicus [3] = test: (§3) Antidiabetic activity in high fat diet-STZ induced diabetic Wistar rat model assessed as cholesterol level at 20 mg/kg, ip pretreated with high fat diet for 4 weeks followed by 8 hrs fasting after STZ administration and measured 4 weeks after compound treatment (reference value: 10.39 +/- 1.3 mmol/L); assay type: functional
Rattus norvegicus [4] = test: as §3, with “glucose” for “cholesterol”, “level in serum” for “level”, “10” for “20”, “527.7” for “10.39”, “49.1 mg%)” for “1.3 mmol/L)”; assay type: functional
Rattus norvegicus [5] = test: (§4) Antidiabetic activity in high fat diet-STZ induced diabetic Wistar rat model assessed as intact tubular segments in kidney at 20 to 30 mg/kg, ip pretreated with high fat diet for 4 weeks followed by 8 hrs fasting after STZ administration and measured 4 weeks after compound treatment by hematoxylin and eosin staining based microscopic analysis; assay type: functional, organism-based; conditions: dose 20-30 mg/kg
Rattus norvegicus [6] = test: as §1, with “protection against periportal mononuclear inflammatory cell infiltration in liver” for “organized histological features of hepatic parenchyma”, “10” for “30”; assay type: functional, organism-based
Rattus norvegicus [7] = test: (§5) Antidiabetic activity in ip dosed high fat diet-STZ induced diabetic Wistar rat model assessed as reduction of ZBP1 mRNA expression in liver pretreated with high fat diet for 4 weeks followed by 8 hrs fasting after STZ administration and measured 4 weeks after compound treatment by RT-qPCR analysis; assay type: functional, organism-based; conditions: dose 10-30 mg/kg
Rattus norvegicus [8] = test: as §3, with “10” for “20”; assay type: functional
Rattus norvegicus [9] = test: as §5, with “DDX58” for “ZBP1”, “kidney” for “liver”; assay type: functional, organism-based; conditions: dose 10-30 mg/kg
Rattus norvegicus [10] = test: as §4, with “reduction in” for “intact”, “dilation” for “segments”, “at” for “at 20 to”; assay type: functional, organism-based
Rattus norvegicus [11] = test: as §1, with “protection against diffuse hepatocellular microvesicular steatosis” for “organized histological features of hepatic parenchyma”, “10” for “30”; assay type: functional, organism-based
Rattus norvegicus [12] = test: (§6) Antidiabetic activity in high fat diet-STZ induced diabetic Wistar rat model assessed as ALT level at 30 mg/kg, ip pretreated with high fat diet for 4 weeks followed by 8 hrs fasting after STZ administration and measured 4 weeks after compound treatment (reference value: 152.1 +/- 23.64 IU/L); assay type: functional
Rattus norvegicus [13] = test: as §2, with “TNF alpha” for “LC3B”, “liver” for “kidney”, “18.28” for “2.47”, “1.31” for “0.356”; assay type: functional
Rattus norvegicus [14] = test: as §6, with “blood urea nitrogen” for “ALT”, “466.4” for “152.1”, “51.16 mg%)” for “23.64 IU/L)”; assay type: functional
Rattus norvegicus [15] = test: (§7) Antidiabetic activity in high fat diet-STZ induced diabetic Wistar rat model assessed as appearance of apparent intact segments in kidney at 10 mg/kg, ip pretreated with high fat diet for 4 weeks followed by 8 hrs fasting after STZ administration and measured 4 weeks after compound treatment by hematoxylin and eosin staining based microscopic analysis; assay type: functional, organism-based
Rattus norvegicus [16] = test: as §6, with “glucose” for “ALT”, “level in serum” for “level”, “527.7” for “152.1”, “49.1 mg%)” for “23.64 IU/L)”; assay type: functional
Rattus norvegicus [17] = test: as §2, with “30” for “20”; assay type: functional
Rattus norvegicus [18] = test: as §3, with “30” for “20”; assay type: functional
Rattus norvegicus [19] = test: (§8) Antidiabetic activity in high fat diet-STZ induced diabetic Wistar rat model assessed as creatinine level at 20 mg/kg, ip pretreated with high fat diet for 4 weeks followed by 8 hrs fasting after STZ administration and measured 4 weeks after compound treatment (reference value: 3.88 +/- 0.502 mg%); assay type: functional
Rattus norvegicus [20] = test: as §4, with “reduction” for “intact tubular segments”, “abnormal infiltrates in liver” for “kidney”, “20” for “20 to 30”; assay type: functional, organism-based
Rattus norvegicus [21] = test: Antidiabetic activity in high fat diet-STZ induced diabetic Wistar rat model assessed as AST level at 10 mg/kg, ip pretreated with high fat diet for 4 weeks followed by 8 hrs fasting after STZ administration and measured 4 weeks after compound treatment (reference value: 136.3 +/- 22.8 IU/L); assay type: functional
Rattus norvegicus [22] = test: as §7, with “reduction” for “appearance of apparent intact segments”, “adipocyte diameter in adipose tissue” for “kidney”; assay type: functional, organism-based
Rattus norvegicus [23] = test: as §6, with “urine albumin to creatinine ratio” for “ALT level”, “87.13” for “152.1”, “9.75 mg/g)” for “23.64 IU/L)”; assay type: functional
Rattus norvegicus [24] = test: as §5, with “adipose tissue” for “liver”; assay type: functional, organism-based; conditions: dose 10-30 mg/kg
Rattus norvegicus [25] = test: as §5, with “in” for “in ip dosed”, “increase in AC074117.2 lncRNA” for “reduction of ZBP1 mRNA”, “liver at 10 to 30 mg/kg, ip” for “liver”; assay type: functional, organism-based; conditions: dose 10-30 mg/kg
Rattus norvegicus [26] = test: Antidiabetic activity in high fat diet-STZ induced diabetic Wistar rat model assessed as ALT level at 10 mg/kg, ip pretreated with high fat diet for 4 weeks followed by 8 hrs fasting after STZ administration and measured 4 weeks after compound treatment (reference value: 152.1 +/- 23.64 IU/L); assay type: functional
Rattus norvegicus [27] = test: as §8, with “blood urea nitrogen” for “creatinine”, “10” for “20”, “466.4” for “3.88”, “51.16” for “0.502”; assay type: functional
Rattus norvegicus [28] = test: as §3, with “triglyceride” for “cholesterol”, “30” for “20”, “17.05” for “10.39”, “0.803” for “1.3”; assay type: functional
Rattus norvegicus [29] = test: Antidiabetic activity in high fat diet-STZ induced diabetic Wistar rat model assessed as ALT level at 20 mg/kg, ip pretreated with high fat diet for 4 weeks followed by 8 hrs fasting after STZ administration and measured 4 weeks after compound treatment (reference value: 152.1 +/- 23.64 IU/L); assay type: functional
Rattus norvegicus [30] = test: as §4, with “reduction” for “intact tubular segments”, “epididymal adipocyte cell size in adipose tissue” for “kidney”; assay type: functional, organism-based; conditions: dose 20-30 mg/kg
Rattus norvegicus [31] = test: as §3, with “LDL-cholesterol” for “cholesterol”, “10” for “20”, “6.54” for “10.39”, “0.918” for “1.3”; assay type: functional
Rattus norvegicus [32] = test: as §2, with “10” for “20”; assay type: functional

How did the Activity (Rattus norvegicus [1]) turn out when `O[C@@H]1[C@@H](O)[C@H](OC/C=C/c2ccccc2)O[C@H](CO[C@@H]2OC[C@H](O)[C@H](O)[C@H]2O)[C@H]1O` was run?
The Activity was “Active”.

And the Activity (Rattus norvegicus [2])?
Its Activity is 11.23%.

And the Activity (Rattus norvegicus [3])?
Its Activity is 4.27 mmol/L.

What about the Activity (Rattus norvegicus [4]) of the same compound?
Its Activity is 227.7 mg%.

What about the Activity (Rattus norvegicus [5]) of the same compound?
The Activity was “Active”.

What about the Activity (Rattus norvegicus [6]) of the same compound?
The Activity was “inactive”.

What about the Activity (Rattus norvegicus [7]) of the same compound?
The Activity was “Dose-Dependent Effect”.

What about the Activity (Rattus norvegicus [8]) of the same compound?
Its Activity is 6.09 mmol/L.

What about the Activity (Rattus norvegicus [9]) of the same compound?
Its Activity is “Dose-Dependent Effect”.

What about the Activity (Rattus norvegicus [10]) of the same compound?
Its Activity is “Active”.

What about the Activity (Rattus norvegicus [11]) of the same compound?
Its Activity is “inactive”.

What about the Activity (Rattus norvegicus [12]) of the same compound?
The Activity was 18.13 IU/L.

And the Activity (Rattus norvegicus [13])?
The Activity was 8.75%.

What about the Activity (Rattus norvegicus [14]) of the same compound?
The Activity was 172.3 mg%.

What about the Activity (Rattus norvegicus [15]) of the same compound?
Its Activity is “inactive”.

And the Activity (Rattus norvegicus [16])?
The Activity was 123.9 mg%.

What about the Activity (Rattus norvegicus [17]) of the same compound?
The Activity was 12.7%.

And the Activity (Rattus norvegicus [18])?
The Activity was 3.15 mmol/L.

And the Activity (Rattus norvegicus [19])?
Its Activity is 1.51 mg%.

What about the Activity (Rattus norvegicus [20]) of the same compound?
The Activity was “Active”.

What about the Activity (Rattus norvegicus [21]) of the same compound?
Its Activity is 83.63 IU/L.

And the Activity (Rattus norvegicus [22])?
Its Activity is “inactive”.

What about the Activity (Rattus norvegicus [23]) of the same compound?
Its Activity is 20.88 mg/g.

What about the Activity (Rattus norvegicus [24]) of the same compound?
The Activity was “Dose-Dependent Effect”.

What about the Activity (Rattus norvegicus [25]) of the same compound?
The Activity was “Active”.

What about the Activity (Rattus norvegicus [26]) of the same compound?
The Activity was 79.5 IU/L.

And the Activity (Rattus norvegicus [27])?
The Activity was 254.7 mg%.

What about the Activity (Rattus norvegicus [28]) of the same compound?
Its Activity is 4.03 mmol/L.

And the Activity (Rattus norvegicus [29])?
The Activity was 42.38 IU/L.

What about the Activity (Rattus norvegicus [30]) of the same compound?
The Activity was “Active”.

What about the Activity (Rattus norvegicus [31]) of the same compound?
Its Activity is 3.19 mmol/L.

What about the Activity (Rattus norvegicus [32]) of the same compound?
Its Activity is 8.6%.
